Experimental data: patent US20020137929A1, “1 - (3-heterocyclylphenyl) isothiourea, -isourea, -guanidine and -amidine herbicidal agents” (Intellectual Property Department, BASF Aktiengesellschaft, priority 1998, published 2002)

Key:
[1] = tested on: CASOB (Sicklepod); assay: Postemergence herbicidal evaluation; type: in vivo, Cassia obtusifolia; settings: postemergence
Outline: (§1)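 Seedlings grown about two weeks were sprayed at 40 psi with compound dispersed in 50/50 acetone/water plus 0.5% TWEEN 20, at about 0.0156 to 0.500 kg/ha. Plants were kept in the greenhouse and scored 4–5 weeks later on a 0–9 visual scale against untreated controls.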

[2] = tested on: CHEAL (Lambsquarters, Common); assay: Postemergence herbicidal evaluation; type: in vivo, Chenopodium album; settings: postemergence
Outline: as §1

[3] = tested on: ECHCG (Barnyardgrass); assay: Postemergence herbicidal evaluation; type: in vivo, Echinochloa crus-galli; settings: postemergence
Outline: as §1

[4] = tested on: ORYSAT (Rice, Tebonnet); assay: Postemergence herbicidal evaluation; type: in vivo, Oryza sativa, (L.) Tebonnet; settings: postemergence
Outline: as §1

[5] = tested on: GALAP (Galium); assay: Preemergence herbicidal evaluation; type: in vivo, Galium aparine; settings: preemergence, rated 4-5 weeks after treatment, 0-9 scale
Outline: (§2)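 Scores (0–9) reflect visual comparison with control plants for stand, vigor, malformation, size and chlorosis. Compound was applied to the soil after sowing, before emergence, as an aqueous acetone spray (about 0.0156–0.500 kg/ha), and cups were kept in a greenhouse for 4–5 weeks.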

[6] = tested on: SETVI (Foxtail, Green); assay: Preemergence herbicidal evaluation; type: in vivo, Setaria viridis; settings: preemergence, rated 4-5 weeks after treatment, 0-9 scale
Outline: as §2

[7] = tested on: GLXMAW (Soybean, Williams); assay: Preemergence herbicidal evaluation; type: in vivo, Glycine max, (L.) Merr. cv Williams; settings: preemergence, rated 4-5 weeks after treatment, 0-9 scale
Outline: as §2

[8] = tested on: ORYSAT (Rice, Tebonnet); assay: Preemergence herbicidal evaluation; type: in vivo, Oryza sativa, (L.) Tebonnet; settings: preemergence, rated 4-5 weeks after treatment, 0-9 scale
Outline: as §2

[9] = tested on: TRZAWR (Wheat, Winter, cv Riband); assay: Preemergence herbicidal evaluation; type: in vivo, Triticum aestivum; settings: preemergence, rated 4-5 weeks after treatment, 0-9 scale
Outline: as §2

[10] = tested on: ZEAMX (Corn, Field); assay: Preemergence herbicidal evaluation; type: in vivo, Zea mays; settings: preemergence, rated 4-5 weeks after treatment, 0-9 scale
Outline: as §2

[11] = tested on: CYPIR (Rice Flatsedge); assay: Preemergence weed control under flooded paddy conditions; type: in vivo, Cyperus iria; settings: rated 3-4 weeks after treatment
Outline: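 Flooded-pot preemergence screen with silt loam and seeds in the upper 0.5 cm. Dose about 0.0313 to 0.500 kg/ha, delivered into flood water; visual 0-9 score after 3 to 4 weeks.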

[12] = tested on: MOOVA (Monochoria); assay: as above; type: in vivo, Monochoria vaginalis; settings: rated 3-4 weeks after treatment
Outline: (§3)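 Using flooded silt loam (water 1.5 to 3 cm deep), seeds sown in the top 0.5 cm were exposed preemergence to compound pipetted into the flood at about 0.0313 to 0.500 kg/ha. Effects were scored 0-9 by eye three to four weeks later.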

[13] = tested on: SAGPY (Arrowhead (Pygmaea)); assay: as above; type: in vivo, Sagittaria pygmaea; settings: rated 3-4 weeks after treatment
Outline: as §3

[14] = tested on: CYPSE (Flatsedge); assay: Postemergence weed control under flooded paddy conditions; type: in vivo, Cyperus serotinus; settings: postemergence weeds, rated 3 to 4 weeks after treatment
Outline: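 With weeds 3 to 5 cm tall and rice at the 1.5 to 2.5 leaf stage, containers were flooded and water held 1.5 to 3 cm above soil. Compounds in 50/50 v/v aqueous/acetone went into the flood water at about 0.0313 to 0.500 kg/ha a.i. Effects were visually rated 0–9 against controls after three to four weeks in the greenhouse.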

For CC(C)OC(=O)CC1SC(=Nc2cc(-n3c(=O)cc(C(F)(F)F)n(C)c3=O)c(F)cc2Cl)N(C)C1=O (centres unmarked) [Compound 89, Isopropyl 2-{{2-chloro-5-[3,6-dihydro-3-methyl-2,6-dioxo-4-(trifluoromethyl)-1(2H)-pyrimidinyl]-4-fluorophenyl}imino}-3-methyl-4-oxo-5-thiazolidineacetate], the CASOB herbicidal rating ([1]; rate 0.0158 kg/ha) was 0.0, the CASOB herbicidal rating ([1]; rate 0.0313 kg/ha) was 6.0 and the CASOB herbicidal rating ([1]; rate 0.0625 kg/ha) was 9.0. The CASOB herbicidal rating ([1]; rate 0.1250 kg/ha) was 9.0, the CHEAL herbicidal rating ([2]; rate 0.0158 kg/ha) was 4.0 and the CHEAL herbicidal rating ([2]; rate 0.0313 kg/ha) was 9.0. It also gave a CHEAL herbicidal rating ([2]; rate 0.0625 kg/ha) of 9.0, a CHEAL herbicidal rating ([2]; rate 0.1250 kg/ha) of 9.0 and an ECHCG herbicidal rating ([3]; rate 0.0158 kg/ha) of 2.0. It also gave an ECHCG herbicidal rating ([3]; rate 0.0313 kg/ha) of 9.0, an ECHCG herbicidal rating ([3]; rate 0.0625 kg/ha) of 9.0 and an ECHCG herbicidal rating ([3]; rate 0.1250 kg/ha) of 9.0. It also gave an ORYSAT herbicidal rating ([4]; rate 0.0158 kg/ha) of 1.0, an ORYSAT herbicidal rating ([4]; rate 0.0313 kg/ha) of 4.0 and an ORYSAT herbicidal rating ([4]; rate 0.0625 kg/ha) of 6.5. It also gave an ORYSAT herbicidal rating ([4]; rate 0.1250 kg/ha) of 8.0, a GALAP rating ([5]; 0.0156 kg/ha) of 0.0 and a GALAP rating ([5]; 0.0313 kg/ha) of 0.0. It also gave a GALAP rating ([5]; 0.0625 kg/ha) of 0.0, a GALAP rating ([5]; 0.1250 kg/ha) of 4.5 and a GALAP rating ([5]; 0.2500 kg/ha) of 8.5. The GALAP rating ([5]; 0.5000 kg/ha) was 9.0, the SETVI rating ([6]; 0.0156 kg/ha) was 0.0 and the SETVI rating ([6]; 0.0313 kg/ha) was 1.5. The SETVI rating ([6]; 0.0625 kg/ha) was 1.5, the SETVI rating ([6]; 0.1250 kg/ha) was 9.0 and the SETVI rating ([6]; 0.2500 kg/ha) was 9.0. For the same compound, the SETVI rating ([6]; 0.5000 kg/ha) was 9.0, the GLXMAW rating ([7]; 0.0156 kg/ha) was 0.0 and the GLXMAW rating ([7]; 0.0313 kg/ha) was 0.0. It also gave a GLXMAW rating ([7]; 0.0625 kg/ha) of 1.0, a GLXMAW rating ([7]; 0.1250 kg/ha) of 2.0 and a GLXMAW rating ([7]; 0.2500 kg/ha) of 8.5. The GLXMAW rating ([7]; 0.5000 kg/ha) was 9.0, the ORYSAT rating ([8]; 0.0156 kg/ha) was 0.0 and the ORYSAT rating ([8]; 0.0313 kg/ha) was 0.5. For the same compound, the ORYSAT rating ([8]; 0.0625 kg/ha) was 2.0, the ORYSAT rating ([8]; 0.1250 kg/ha) was 4.5 and the ORYSAT rating ([8]; 0.2500 kg/ha) was 8.0. For the same compound, the ORYSAT rating ([8]; 0.5000 kg/ha) was 9.0, the TRZAWR rating ([9]; 0.0156 kg/ha) was 0.0 and the TRZAWR rating ([9]; 0.0313 kg/ha) was 0.0. For the same compound, the TRZAWR rating ([9]; 0.0625 kg/ha) was 0.5, the TRZAWR rating ([9]; 0.1250 kg/ha) was 2.0 and the TRZAWR rating ([9]; 0.2500 kg/ha) was 6.5. It also gave a TRZAWR rating ([9]; 0.5000 kg/ha) of 9.0, a ZEAMX rating ([10]; 0.0156 kg/ha) of 0.0 and a ZEAMX rating ([10]; 0.0313 kg/ha) of 0.0. For the same compound, the ZEAMX rating ([10]; 0.0625 kg/ha) was 1.0, the ZEAMX rating ([10]; 0.1250 kg/ha) was 6.5 and the ZEAMX rating ([10]; 0.2500 kg/ha) was 7.5. The ZEAMX rating ([10]; 0.5000 kg/ha) was 9.0, the “CYPIR herbicidal effect rating” value ([11]; 0.0313 kg/ha) was 0.0 and the “CYPIR herbicidal effect rating” value ([11]; 0.0625 kg/ha) was 0.0. For the same compound, the “CYPIR herbicidal effect rating” value ([11]; 0.1250 kg/ha) was 2.0, the “CYPIR herbicidal effect rating” value ([11]; 0.2500 kg/ha) was 4.0 and the “MOOVA herbicidal effect rating” value ([12]; 0.0313 kg/ha) was 9.0. For the same compound, the “MOOVA herbicidal effect rating” value ([12]; 0.0625 kg/ha) was 9.0, the “MOOVA herbicidal effect rating” value ([12]; 0.1250 kg/ha) was 9.0 and the “MOOVA herbicidal effect rating” value ([12]; 0.2500 kg/ha) was 9.0. For the same compound, the “SAGPY herbicidal effect rating” value ([13]; 0.0313 kg/ha) was 4.0, the “SAGPY herbicidal effect rating” value ([13]; 0.0625 kg/ha) was 5.0 and the “SAGPY herbicidal effect rating” value ([13]; 0.1250 kg/ha) was 9.0. The “SAGPY herbicidal effect rating” value ([13]; 0.2500 kg/ha) was 9.0, the “Herbicidal rating CYPSE” value ([14]; Rate 0.0313 kg/ha) was 0.0 and the “Herbicidal rating CYPSE” value ([14]; Rate 0.0625 kg/ha) was 0.0. The “Herbicidal rating CYPSE” value ([14]; Rate 0.1250 kg/ha) was 4.0 and the “Herbicidal rating CYPSE” value ([14]; Rate 0.2500 kg/ha) was 6.0.
